Measured values: the kinase profiling compilation of Christmann-Franck et al. (2016)
Values joined by “and” are separate entries in the source; they are usually repeats but may differ in a detail not shown here. Equal values may be shown once.

What was measured:
Assay in all cases: radiometric filter-binding kinase assay, Kinase HotSpot
Settings in all cases: compound 0.5 µM; ATP 10 µM
ADRBK2 (human) = ADRBK2 (human) (UniProt P35626)
AURKB (human) = AURKB (human) (UniProt Q96GD4)
BMX (human) = BMX (human) (UniProt P51813)
CDK1 CCNA2 (human) = CDK1 CCNA2 (human) (UniProt P06493+P20248)
CDK9 CCNK (human) = CDK9 CCNK (human) (UniProt O75909+P50750)
CDK9 CCNT1 (human) = CDK9 CCNT1 (human) (UniProt P50750+O60563)
CHEK2 (human) = CHEK2 (human) (UniProt O96017)
CSK (human) = CSK (human) (UniProt P41240)
DAPK1 (human) = DAPK1 (human) (UniProt P53355)
DMPK (human) = DMPK (human) (UniProt Q09013)
Chain of DMPK (human) (Q09013 whole entry, looked up): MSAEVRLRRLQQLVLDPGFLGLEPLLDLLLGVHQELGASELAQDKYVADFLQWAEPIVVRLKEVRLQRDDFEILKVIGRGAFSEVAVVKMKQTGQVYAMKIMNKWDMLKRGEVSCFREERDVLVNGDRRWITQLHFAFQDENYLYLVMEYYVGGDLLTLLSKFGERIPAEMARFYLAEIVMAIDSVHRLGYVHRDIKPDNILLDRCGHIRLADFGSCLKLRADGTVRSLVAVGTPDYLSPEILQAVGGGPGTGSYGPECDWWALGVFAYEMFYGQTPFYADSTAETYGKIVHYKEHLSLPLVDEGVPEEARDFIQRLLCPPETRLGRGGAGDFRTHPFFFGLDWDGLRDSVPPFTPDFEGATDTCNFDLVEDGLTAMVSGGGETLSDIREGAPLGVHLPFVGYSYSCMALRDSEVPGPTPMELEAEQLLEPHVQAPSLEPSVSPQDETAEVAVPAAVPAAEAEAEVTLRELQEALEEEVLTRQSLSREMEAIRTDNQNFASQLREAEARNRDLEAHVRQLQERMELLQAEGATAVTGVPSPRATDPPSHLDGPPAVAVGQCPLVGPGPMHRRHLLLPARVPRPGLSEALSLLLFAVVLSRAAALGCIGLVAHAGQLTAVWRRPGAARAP

EPHA4 (human) = EPHA4 (human) (UniProt P54764)
EPHA7 (human) = EPHA7 (human) (UniProt Q15375)
EPHA8 (human) = EPHA8 (human) (UniProt P29322)
GRK5 (human) = GRK5 (human) (UniProt P34947)
Chain of GRK5 (human) (P34947 whole entry, looked up): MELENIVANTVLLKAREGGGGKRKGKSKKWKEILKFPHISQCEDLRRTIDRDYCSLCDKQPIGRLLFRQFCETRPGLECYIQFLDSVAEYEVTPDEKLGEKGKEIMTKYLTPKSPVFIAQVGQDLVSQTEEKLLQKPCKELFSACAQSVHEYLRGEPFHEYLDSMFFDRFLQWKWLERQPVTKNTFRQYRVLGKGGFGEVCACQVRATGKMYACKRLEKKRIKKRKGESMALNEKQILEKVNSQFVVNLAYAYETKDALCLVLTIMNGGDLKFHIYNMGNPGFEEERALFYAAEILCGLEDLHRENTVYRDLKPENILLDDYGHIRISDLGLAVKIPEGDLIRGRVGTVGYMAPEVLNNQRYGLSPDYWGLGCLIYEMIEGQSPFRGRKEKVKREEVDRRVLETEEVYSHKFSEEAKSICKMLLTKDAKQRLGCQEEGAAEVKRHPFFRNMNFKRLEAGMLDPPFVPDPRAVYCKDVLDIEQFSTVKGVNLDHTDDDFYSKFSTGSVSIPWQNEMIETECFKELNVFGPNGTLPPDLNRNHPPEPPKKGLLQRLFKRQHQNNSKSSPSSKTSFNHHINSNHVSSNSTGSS

HIPK3 (human) = HIPK3 (human) (UniProt Q9H422)
Chain of HIPK3 (human) (Q9H422 whole entry, looked up): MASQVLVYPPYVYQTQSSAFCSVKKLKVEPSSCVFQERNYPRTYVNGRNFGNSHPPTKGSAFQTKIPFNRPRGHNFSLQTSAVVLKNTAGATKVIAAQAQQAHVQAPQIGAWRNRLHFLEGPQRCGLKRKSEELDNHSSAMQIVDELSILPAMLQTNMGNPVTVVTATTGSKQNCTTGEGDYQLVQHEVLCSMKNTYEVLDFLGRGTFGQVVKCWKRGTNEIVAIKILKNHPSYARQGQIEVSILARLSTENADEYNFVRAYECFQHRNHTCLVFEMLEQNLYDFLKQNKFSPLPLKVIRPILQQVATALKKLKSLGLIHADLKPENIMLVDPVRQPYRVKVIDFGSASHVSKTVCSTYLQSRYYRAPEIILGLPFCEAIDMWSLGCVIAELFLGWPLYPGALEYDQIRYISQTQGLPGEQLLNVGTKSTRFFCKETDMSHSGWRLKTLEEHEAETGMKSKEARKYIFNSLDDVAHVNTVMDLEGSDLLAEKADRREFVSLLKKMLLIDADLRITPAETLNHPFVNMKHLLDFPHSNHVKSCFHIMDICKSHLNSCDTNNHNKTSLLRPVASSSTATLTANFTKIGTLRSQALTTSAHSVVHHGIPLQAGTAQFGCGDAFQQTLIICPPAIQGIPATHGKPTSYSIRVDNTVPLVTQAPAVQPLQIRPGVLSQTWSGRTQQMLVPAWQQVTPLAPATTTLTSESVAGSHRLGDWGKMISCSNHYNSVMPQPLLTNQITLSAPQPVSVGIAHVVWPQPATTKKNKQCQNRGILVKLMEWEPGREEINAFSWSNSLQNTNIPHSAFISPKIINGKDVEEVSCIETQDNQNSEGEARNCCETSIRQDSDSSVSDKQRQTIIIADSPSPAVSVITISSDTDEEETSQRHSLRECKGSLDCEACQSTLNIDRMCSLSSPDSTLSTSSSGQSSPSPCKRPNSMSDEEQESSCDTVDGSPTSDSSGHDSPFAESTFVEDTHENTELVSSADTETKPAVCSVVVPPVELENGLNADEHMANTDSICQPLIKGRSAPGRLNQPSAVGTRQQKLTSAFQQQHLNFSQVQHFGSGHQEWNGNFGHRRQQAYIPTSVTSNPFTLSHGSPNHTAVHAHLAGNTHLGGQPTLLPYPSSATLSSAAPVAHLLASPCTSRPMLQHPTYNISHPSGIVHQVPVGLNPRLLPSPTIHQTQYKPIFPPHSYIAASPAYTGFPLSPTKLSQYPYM

INSR (human) = INSR (human) (UniProt P06213)
[1] = target: JAK1 JH1 catalytic (human) (UniProt P23458)
JAK3 JH1 JH2 (human) = JAK3 JH1 JH2 (human) (UniProt P52333)
KIT (human) = KIT (human) (UniProt P10721)
LRRK2 (human) = LRRK2 (human) (UniProt Q5S007)
MAP3K5 (human) = MAP3K5 (human) (UniProt Q99683)
MAP4K2 (human) = MAP4K2 (human) (UniProt Q12851)
MAPKAPK2 (human) = MAPKAPK2 (human) (UniProt P49137)
MATK (human) = MATK (human) (UniProt P42679)
MELK (human) = MELK (human) (UniProt Q14680)
NEK6 (human) = NEK6 (human) (UniProt Q9HC98)
NTRK3 (human) = NTRK3 (human) (UniProt Q16288)
Chain of NTRK3 (human) (Q16288 whole entry, looked up): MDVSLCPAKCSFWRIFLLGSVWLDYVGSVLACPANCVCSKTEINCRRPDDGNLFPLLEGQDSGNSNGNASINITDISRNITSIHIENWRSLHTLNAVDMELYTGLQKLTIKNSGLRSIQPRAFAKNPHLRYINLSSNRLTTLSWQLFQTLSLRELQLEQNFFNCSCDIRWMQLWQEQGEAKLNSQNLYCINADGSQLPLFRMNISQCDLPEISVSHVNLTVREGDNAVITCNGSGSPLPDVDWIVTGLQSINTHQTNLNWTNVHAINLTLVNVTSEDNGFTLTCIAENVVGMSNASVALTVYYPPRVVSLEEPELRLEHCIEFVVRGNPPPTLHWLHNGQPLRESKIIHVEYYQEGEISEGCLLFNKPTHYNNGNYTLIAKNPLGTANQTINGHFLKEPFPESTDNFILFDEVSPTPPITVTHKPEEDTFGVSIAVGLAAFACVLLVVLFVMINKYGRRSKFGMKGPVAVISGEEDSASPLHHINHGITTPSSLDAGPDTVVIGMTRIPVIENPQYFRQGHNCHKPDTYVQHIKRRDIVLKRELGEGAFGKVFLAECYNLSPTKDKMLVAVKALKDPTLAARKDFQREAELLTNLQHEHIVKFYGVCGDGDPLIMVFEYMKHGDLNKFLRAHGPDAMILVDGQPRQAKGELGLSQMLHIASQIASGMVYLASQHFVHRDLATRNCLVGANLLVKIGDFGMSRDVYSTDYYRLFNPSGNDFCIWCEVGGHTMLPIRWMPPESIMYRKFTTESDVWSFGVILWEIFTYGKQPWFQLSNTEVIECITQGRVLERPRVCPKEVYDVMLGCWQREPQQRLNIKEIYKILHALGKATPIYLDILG

NUAK1 (human) = NUAK1 (human) (UniProt O60285)
PAK7 (human) = PAK7 (human) (UniProt Q9P286)
PHKG2 (human) = PHKG2 (human) (UniProt P15735)
Chain of PHKG2 (human) (P15735 whole entry, looked up): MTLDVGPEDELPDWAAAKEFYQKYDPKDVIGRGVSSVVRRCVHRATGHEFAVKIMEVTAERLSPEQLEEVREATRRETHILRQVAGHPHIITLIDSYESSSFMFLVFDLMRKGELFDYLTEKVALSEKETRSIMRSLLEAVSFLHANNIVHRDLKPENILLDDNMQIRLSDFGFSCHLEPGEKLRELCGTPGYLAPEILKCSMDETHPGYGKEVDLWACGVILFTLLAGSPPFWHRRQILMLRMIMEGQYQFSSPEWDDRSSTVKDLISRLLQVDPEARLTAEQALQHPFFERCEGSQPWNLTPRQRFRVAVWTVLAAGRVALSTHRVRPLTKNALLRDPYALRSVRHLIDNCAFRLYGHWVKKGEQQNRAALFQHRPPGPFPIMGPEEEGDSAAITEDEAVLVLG

PIM2 (human) = PIM2 (human) (UniProt Q9P1W9)
PRKCH (human) = PRKCH (human) (UniProt P24723)
PRKD1 (human) = PRKD1 (human) (UniProt Q15139)
PRKG1 (human) = PRKG1 (human) (UniProt Q13976)
Chain of PRKG1 (human) (Q13976 whole entry, looked up): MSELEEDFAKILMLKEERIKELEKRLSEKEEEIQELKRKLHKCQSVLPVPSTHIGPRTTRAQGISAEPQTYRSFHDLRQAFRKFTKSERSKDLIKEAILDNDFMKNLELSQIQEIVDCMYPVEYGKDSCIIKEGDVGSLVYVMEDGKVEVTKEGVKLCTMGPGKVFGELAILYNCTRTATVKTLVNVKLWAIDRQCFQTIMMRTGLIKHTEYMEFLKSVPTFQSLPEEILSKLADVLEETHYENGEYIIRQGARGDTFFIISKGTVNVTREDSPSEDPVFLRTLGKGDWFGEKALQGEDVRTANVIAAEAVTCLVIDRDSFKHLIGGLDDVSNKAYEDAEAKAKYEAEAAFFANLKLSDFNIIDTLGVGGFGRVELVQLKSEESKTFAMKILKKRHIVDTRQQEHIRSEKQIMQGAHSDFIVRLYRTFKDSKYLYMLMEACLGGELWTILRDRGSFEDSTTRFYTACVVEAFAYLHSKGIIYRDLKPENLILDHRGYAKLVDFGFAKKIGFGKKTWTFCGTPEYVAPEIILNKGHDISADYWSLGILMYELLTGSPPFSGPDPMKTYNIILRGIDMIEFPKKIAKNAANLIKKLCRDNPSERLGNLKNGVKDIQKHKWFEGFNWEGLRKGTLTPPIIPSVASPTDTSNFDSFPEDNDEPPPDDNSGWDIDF

SGK3 (human) = SGK3 (human) (UniProt Q96BR1)
Chain of SGK3 (human) (Q96BR1 whole entry, looked up): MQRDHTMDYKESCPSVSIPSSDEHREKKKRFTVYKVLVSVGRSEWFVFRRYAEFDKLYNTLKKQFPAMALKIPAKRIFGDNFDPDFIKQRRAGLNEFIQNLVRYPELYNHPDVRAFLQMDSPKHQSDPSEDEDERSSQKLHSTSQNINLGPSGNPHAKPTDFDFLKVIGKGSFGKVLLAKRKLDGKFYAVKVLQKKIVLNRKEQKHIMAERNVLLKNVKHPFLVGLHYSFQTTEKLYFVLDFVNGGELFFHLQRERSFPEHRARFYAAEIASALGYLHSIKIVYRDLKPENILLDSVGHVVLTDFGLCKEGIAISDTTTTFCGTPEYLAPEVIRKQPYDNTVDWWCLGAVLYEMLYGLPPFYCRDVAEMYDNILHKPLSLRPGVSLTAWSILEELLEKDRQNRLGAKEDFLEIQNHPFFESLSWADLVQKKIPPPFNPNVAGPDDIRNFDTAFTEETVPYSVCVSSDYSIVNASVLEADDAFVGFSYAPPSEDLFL

STK24 (human) = STK24 (human) (UniProt Q9Y6E0)
STK39 (human) = STK39 (human) (UniProt Q9UEW8)
SYK (human) = SYK (human) (UniProt P43405)
TNK2 (human) = TNK2 (human) (UniProt Q07912)
TYRO3 (human) = TYRO3 (human) (UniProt Q06418)
YES1 (human) = YES1 (human) (UniProt P07947)

Structure (SMILES): O=C1c2ccccc2-c2nc3nnnn3nc21
- residual activity (ADRBK2 (human)): 106%
- residual activity (AURKB (human)): 84.7%
- residual activity (BMX (human)): 79%
- residual activity (CDK1 CCNA2 (human)): 48.9%
- residual activity (CDK9 CCNK (human)): 74.4%
- residual activity (CDK9 CCNT1 (human)): 97%
- residual activity (CHEK2 (human)): 54.7%
- residual activity (CSK (human)): 84.8%
- residual activity (DAPK1 (human)): 92.2%
- residual activity (DMPK (human)): 84.8%
- residual activity (EPHA4 (human)): 61.1%
- residual activity (EPHA7 (human)): 81.9%
- residual activity (EPHA8 (human)): 92.6%
- residual activity (GRK5 (human)): 74.3%
- residual activity (HIPK3 (human)): 101%
- residual activity (INSR (human)): 32.3%
- residual activity [1]: 101%
- residual activity (JAK3 JH1 JH2 (human)): 90.4%
- residual activity (KIT (human)): 22.2%
- residual activity (LRRK2 (human)): 85.6%
- residual activity (MAP3K5 (human)): 106%
- residual activity (MAP4K2 (human)): 79.4%
- residual activity (MAPKAPK2 (human)): 104%
- residual activity (MATK (human)): 99.7%
- residual activity (MELK (human)): 55.7%
- residual activity (NEK6 (human)): 96.3%
- residual activity (NTRK3 (human)): 87.2%
- residual activity (NUAK1 (human)): 89.8%
- residual activity (PAK7 (human)): 93.4%
- residual activity (PHKG2 (human)): 96.1%
- residual activity (PIM2 (human)): 92.8%
- residual activity (PRKCH (human)): 49.2%
- residual activity (PRKD1 (human)): 86.5%
- residual activity (PRKG1 (human)): 109% and 133%
- residual activity (SGK3 (human)): 90.4%
- residual activity (STK24 (human)): 101%
- residual activity (STK39 (human)): 89.2%
- residual activity (SYK (human)): 94.8%
- residual activity (TNK2 (human)): 44.9%
- residual activity (TYRO3 (human)): 33.3%
- residual activity (YES1 (human)): 89.1%

Structure (SMILES): CC(C)(C)c1cc(C=C(C#N)C#N)cc(Br)c1O
- residual activity (ADRBK2 (human)): 98%
- residual activity (AURKB (human)): 97.1%
- residual activity (BMX (human)): 113%
- residual activity (CDK1 CCNA2 (human)): 87.8%
- residual activity (CDK9 CCNK (human)): 109%
- residual activity (CDK9 CCNT1 (human)): 95.4%
- residual activity (CHEK2 (human)): 104%
- residual activity (CSK (human)): 106%
- residual activity (DAPK1 (human)): 85.9%
- residual activity (DMPK (human)): 96.9%
- residual activity (EPHA4 (human)): 94.7%
- residual activity (EPHA7 (human)): 107%
- residual activity (EPHA8 (human)): 100%
- residual activity (GRK5 (human)): 108%
- residual activity (HIPK3 (human)): 98.2%
- residual activity (INSR (human)): 105%
- residual activity [1]: 107%
- residual activity (JAK3 JH1 JH2 (human)): 110%
- residual activity (KIT (human)): 97.9%
- residual activity (LRRK2 (human)): 109%
- residual activity (MAP3K5 (human)): 100%
- residual activity (MAP4K2 (human)): 113%
- residual activity (MAPKAPK2 (human)): 92.3%
- residual activity (MATK (human)): 102%
- residual activity (MELK (human)): 91.6%
- residual activity (NEK6 (human)): 111%
- residual activity (NTRK3 (human)): 104%
- residual activity (NUAK1 (human)): 95.4%
- residual activity (PAK7 (human)): 119%
- residual activity (PHKG2 (human)): 106%
- residual activity (PIM2 (human)): 115%
- residual activity (PRKCH (human)): 100%
- residual activity (PRKD1 (human)): 100%
- residual activity (PRKG1 (human)): 103% and 107%
- residual activity (SGK3 (human)): 97.7%
- residual activity (STK24 (human)): 96.3%
- residual activity (STK39 (human)): 87.6%
- residual activity (SYK (human)): 97.6%
- residual activity (TNK2 (human)): 93.1%
- residual activity (TYRO3 (human)): 110%
- residual activity (YES1 (human)): 83%

Structure (SMILES): N#C/C(=C\c1ccc(O)c(O)c1)C(=O)NCc1ccccc1
- residual activity (ADRBK2 (human)): 91.4%
- residual activity (AURKB (human)): 94.4%
- residual activity (BMX (human)): 88.8%
- residual activity (CDK1 CCNA2 (human)): 92.8%
- residual activity (CDK9 CCNK (human)): 102%
- residual activity (CDK9 CCNT1 (human)): 74.9%
- residual activity (CHEK2 (human)): 97.5%
- residual activity (CSK (human)): 101%
- residual activity (DAPK1 (human)): 99.7%
- residual activity (DMPK (human)): 99.7%
- residual activity (EPHA4 (human)): 99.5%
- residual activity (EPHA7 (human)): 89.7%
- residual activity (EPHA8 (human)): 92%
- residual activity (GRK5 (human)): 108%
- residual activity (HIPK3 (human)): 96.6%
- residual activity (INSR (human)): 93.8%
- residual activity [1]: 93.8%
- residual activity (KIT (human)): 93.9%
- residual activity (LRRK2 (human)): 101%
- residual activity (MAP3K5 (human)): 104%
- residual activity (MAP4K2 (human)): 103%
- residual activity (MAPKAPK2 (human)): 101%
- residual activity (MATK (human)): 86.3%
- residual activity (MELK (human)): 100%
- residual activity (NEK6 (human)): 104%
- residual activity (NTRK3 (human)): 98.8%
- residual activity (NUAK1 (human)): 90%
- residual activity (PAK7 (human)): 96.1%
- residual activity (PHKG2 (human)): 96%
- residual activity (PIM2 (human)): 97.1%
- residual activity (PRKCH (human)): 95.5%
- residual activity (PRKD1 (human)): 92.5%
- residual activity (PRKG1 (human)): 89.2% and 92.6%
- residual activity (SGK3 (human)): 102%
- residual activity (STK24 (human)): 100%
- residual activity (STK39 (human)): 99.8%
- residual activity (SYK (human)): 116%
- residual activity (TNK2 (human)): 98.3%
- residual activity (TYRO3 (human)): 109%
- residual activity (YES1 (human)): 103%
